ChEMBL document CHEMBL1128051, “Radioprotective effects of -galactosylceramides” (1995)
Values joined by “and” are separate entries in the source; they are usually repeats but may differ in a detail not shown here. Identical values can stand only once.

Assays:
Type in all cases: functional
[1] = tested on: Mus musculus; assay: Evaluation of Radioprotective effect of the intravenously administered compound (0.1 mg/kg on day 0,4,8) after irradiation on mice with 9 Gy of X-ray on day 15
[2] = tested on: Mus musculus; assay: Evaluation of Radioprotective effect of the intravenously administered compound (0.1 mg/kg on day 0,4,8) after irradiation on mice with 9 Gy of X-ray on day 10
[3] = tested on: Mus musculus; assay: Evaluation of Radioprotective effect of the intravenously administered compound (0.1 mg/kg on day 0,4,8) after irradiation on mice with 9 Gy of X-ray on day 20
[4] = tested on: Mus musculus; assay: Evaluation of Radioprotective effect of the intravenously administered compound (0.1 mg/kg on day 0,4,8) after irradiation on mice with 9 Gy of X-ray on day 25
[5] = tested on: Mus musculus; assay: Evaluation of Radioprotective effect of the intravenously administered compound (0.1 mg/kg on day 0,4,8) after irradiation on mice with 9 Gy of X-ray on day 35

SMILES | Survival [1] | Survival [2] [%] | Survival [3] [%] | Survival [4] [%] | Survival [5]
CCCCCCCCCCCCCCCCCCCCCC[C@@H](O)C(=O)N[C@@H](CO[C@H]1O[C@@H](CO)[C@H](O)[C@H](O)[C@@H]1O)[C@H](O)[C@H](O)CCCCCCCCCCCCCC | 100% | 100 | 80 | 80 | 90% and 80%
CCCCCCCCCCCCCCCCCCCCCCCC(=O)NC(CO[C@H]1O[C@@H](CO)[C@H](O)[C@H](O)[C@@H]1O)[C@H](O)CCCCCCCCCCCCCCC (single isomer, unassigned) | 100% | 100 | 90 | 90 | 90%
CCCCCCCCCCCCCCCCCCCCCC[C@@H](O)C(=O)NC(CO[C@H]1O[C@@H](CO)[C@H](O)[C@H](O)[C@@H]1O)[C@H](O)CCCCCCCCCCCCCCC (single isomer, unassigned) | 100% | 100 | 90 | 90 | 90%
CCCCCCCCCCCCCCCCCCCCCCCC(=O)N[C@@H](CO[C@H]1O[C@@H](CO)[C@H](O)[C@H](O)[C@@H]1O)C(O)[C@H](O)CCCCCCCCCCCCCC (single isomer, unassigned) | 100% and 90% | 100 | 90 | 90 | 90%
CCCCCCCCCCCCCCC[C@@H](O)[C@H](CO[C@H]1O[C@@H](CO)[C@H](O)[C@H](O)[C@@H]1O)NC(=O)CCCCCCCCCCCCC (stereo in doubt; form 1) | 100% and 90% | 100 | 90 | 90 | 90%
CCCCCCCCCCCCCCC[C@@H](O)[C@H](CO[C@H]1O[C@@H](CO)[C@H](O)[C@H](O)[C@@H]1O)NC(=O)CCCCCCCCCCCCC (stereo in doubt; form 2) | – | – | 20 | 20 | 20%
